Measured values published in patent publication US6737383B1, “Herbicidal oxadiazolidines” (priority 1999, dated 2004).

Key:
[1] = system: itchgrass; assay: Test D itchgrass; type: in vivo, Rottboellia exaltata; settings: Preemergence, 0 to 100 scale
Summary of the method: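 Scoring used a 0–100 visual injury scale, with 0 meaning no effect and 100 complete control, assessed 14–21 days after application alongside untreated pots. Preemergence treatments went onto sandy loam surfaces of separately potted seeds within a day of sowing.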

[2] = system: Alexandergrass; assay: Test D Alexandergrass; type: in vivo, Brachiaria plantaginea; settings: Preemergence, 0 to 100 scale
Summary of the method: (§1)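 Seeds were sown in greenhouse pots, one species per pot or compartment. Compounds were in a non-phytotoxic solvent mixture with surfactant; preemergence applications went on the sandy loam surface within one day of planting. Injury was rated visually after 14 to 21 days, 0 (none) to 100 (complete control).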

[3] = system: sandbur; assay: Test D sandbur; type: in vivo, Cenchrus echinatus; settings: Preemergence, 0 to 100 scale
Summary of the method: as §1

[4] = system: surinam grass; assay: Test D surinam grass; type: in vivo, Brachiaria decumbens; settings: Preemergence, 0 to 100 scale
Summary of the method: as §1

[5] = system: bermuda-grass; assay: Test D bermudagrass; type: in vivo, Cynodon dactylon; settings: Preemergence, 0 to 100 scale
Summary of the method: as §1

[6] = system: Green foxtail; assay: Test D green foxtail; type: in vivo; settings: Preemergence, 0 to 100 scale
Summary of the method: as §1

[7] = system: tall mallow; assay: Test D tall mallow; type: in vivo, Malva sylvestris; settings: Preemergence, 0 to 100 scale
Summary of the method: as §1

[8] = system: dallisgrass; assay: Test D dallisgrass; type: in vivo, Paspalum dilatatum; settings: Preemergence, 0 to 100 scale
Summary of the method: as §1

[9] = system: goosegrass; assay: Test D goosegrass; type: in vivo, Eleusine indica; settings: Preemergence, 0 to 100 scale
Summary of the method: as §1

[10] = system: pitted morningglory; assay: Test D pitted morningglory; type: in vivo, Ipomoea lacunosa; settings: Preemergence, 0 to 100 scale
Summary of the method: as §1

[11] = system: purple nutsedge; assay: Test D purple nutsedge; type: in vivo, Cyperus rotundus; settings: Preemergence, 0 to 100 scale
Summary of the method: as §1

[12] = system: common pursiane; assay: Test D common purslane; type: in vivo, Portulaca oleracea
Summary of the method: as §1

[13] = system: common groundsel; assay: Test D common groundsel; type: in vivo, Senecio vulgaris; settings: Preemergence, 0 to 100 scale
Summary of the method: as §1

[14] = system: large crabgrass; assay: Test D large crabgrass; type: in vivo, Digitaria sanguinalis; settings: Preemergence, 0 to 100 scale
Summary of the method: as §1

[15] = system: Spanishneedles; assay: Test D Spanishneedles; type: in vivo, Bidens bipinnata; settings: Preemergence, 0 to 100 scale
Summary of the method: as §1

[16] = system: common ragweed; assay: Test D common ragweed; type: in vivo, Ambrosia elatior; settings: Preemergence, 0 to 100 scale
Summary of the method: as §1

[17] = system: Johnson grass; assay: Test D Johnson grass; type: in vivo, Sorghum halepense; settings: Preemergence, 0 to 100 scale
Summary of the method: as §1

[18] = system: guineagrass; assay: Test D guineagrass; type: in vivo, Panicum maximum; settings: Preemergence, 0 to 100 scale
Summary of the method: as §1

[19] = Rate 16 g/ha, 0 no injury, 100 complete control
[20] = Rate 32 g/ha, 0 no injury, 100 complete control
[21] = Rate 64 g/ha, 0 no injury, 100 complete control
[22] = Rate 125 g/ha, 0 no injury, 100 complete control
[23] = Rate 64 g/ha, Preemergence; 0 to 100 scale, 0 no injury, 100 complete control
[24] = Rate 125 g/ha, Preemergence; 0 to 100 scale, 0 no injury, 100 complete control
[25] = Rate 500 g/ha, Preemergence; 0 to 100 scale
[26] = Rate 500 g/ha; Preemergence; 0 to 100 scale

CC(C)N(C(=O)n1oc(=O)n(C2CCCCC2)c1=O)c1ccc(F)cc1F [Compound 115]
Plant response rating, Itchgrass [1, 19]: 40
Plant response rating, Itchgrass [1, 20]: 40
Plant response rating, Itchgrass [1, 21]: 40
Plant response rating, Itchgrass [1, 22]: 50
Plant response rating, Itchgrass ([1]; Rate 250 g/ha): 50
Plant response rating, Itchgrass ([1]; Rate 500 g/ha): 50
Plant response rating, Alexandergrass [2, 19]: 0
Plant response rating, Alexandergrass [2, 20]: 20
Plant response rating, Alexandergrass [2, 21]: 50
Plant response rating, Alexandergrass [2, 22]: 75
Plant response rating, Alexandergrass ([2]; Rate 250 g/ha): 85
Plant response rating, Alexandergrass ([2]; Rate 500 g/ha): 100
Plant response rating, Sandbur [3, 19]: 0
Plant response rating, Sandbur [3, 20]: 0
Sandbur plant response rating [3, 21]: 0
Sandbur plant response rating [3, 22]: 40
Plant response rating, Sandbur ([3]; Rate 250 g/ha): 50
Plant response rating, Sandbur ([3]; Rate 500 g/ha): 100
Plant response rating, Surinam grass [4, 19]: 0
Plant response rating, Surinam grass [4, 20]: 20
Surinam grass plant response rating [4, 21]: 65
Surinam grass plant response rating [4, 22]: 75
Plant response rating, Surinam grass ([4]; Rate 250 g/ha): 75
Plant response rating, Surinam grass ([4]; Rate 500 g/ha): 85
Plant response rating, Bermudagrass [5, 19]: 75
Plant response rating, Bermudagrass [5, 20]: 98
Plant response rating, Bermudagrass [5, 21]: 98
Plant response rating, Bermudagrass [5, 22]: 100
Plant response rating, Bermudagrass ([5]; Rate 250 g/ha): 100
Plant response rating, Bermudagrass ([5]; Rate 500 g/ha): 100
Plant response rating, Green foxtail ([6]; Rate 250 g/ha): 100
Plant response rating, Green foxtail ([6]; Rate 500 g/ha): 100
Plant response rating, Tall Mallow [7, 19]: 0
Plant response rating, Tall Mallow [7, 20]: 0
Tall Mallow plant response rating [7, 21]: 0
Tall Mallow plant response rating [7, 22]: 0
Plant response rating, Tall Mallow ([7]; Rate 250 g/ha): 0
Plant response rating, Tall Mallow ([7]; Rate 500 g/ha): 0
Plant response rating, Dallisgrass [8, 19]: 0
Plant response rating, Dallisgrass [8, 20]: 75
Plant response rating, Dallisgrass [8, 21]: 75
Plant response rating, Dallisgrass [8, 22]: 98
Plant response rating, Dallisgrass ([8]; Rate 250 g/ha): 98
Plant response rating, Dallisgrass ([8]; Rate 500 g/ha): 100
Plant response rating, Goosegrass [9, 19]: 20
Plant response rating, Goosegrass [9, 20]: 85
Plant response rating, Goosegrass [9, 21]: 90
Plant response rating, Goosegrass [9, 22]: 98
Plant response rating, Goosegrass ([9]; Rate 250 g/ha): 100
Plant response rating, Goosegrass ([9]; Rate 500 g/ha): 100
Plant response rating, P. morninglory [10, 19]: 0
Plant response rating, P. morninglory [10, 20]: 0
Plant response rating, P. morninglory [10, 21]: 0
Plant response rating, P. morninglory [10, 22]: 0
Plant response rating, P. morninglory ([10]; Rate 250 g/ha): 0
Plant response rating, P. morninglory ([10]; Rate 500 g/ha): 10
Plant response rating, Purple nutsedge [11, 19]: 0
Plant response rating, Purple nutsedge [11, 20]: 0
Purple nutsedge plant response rating [11, 21]: 0
Purple nutsedge plant response rating [11, 22]: 0
Plant response rating, Purple nutsedge ([11]; Rate 250 g/ha): 0
Plant response rating, Purple nutsedge ([11]; Rate 500 g/ha): 0
Plant response rating, C. purslane ([12]; Rate 16 g/ha; Preemergence; 0 to 100 scale, 0 no injury, 100 complete control): 0
Plant response rating, C. purslane ([12]; Rate 32 g/ha; Preemergence; 0 to 100 scale, 0 no injury, 100 complete control): 0
Plant response rating, C. purslane [12, 23]: 0
Plant response rating, C. purslane [12, 24]: 0
Plant response rating, C. purslane ([12]; Rate 250 g/ha; Preemergence; 0 to 100 scale): 0
Plant response rating, C. purslane [12, 25]: 20
Plant response rating, C. purslane [12, 26]: 0
Plant response rating, Com. groundsel [13, 19]: 0
Plant response rating, Com. groundsel [13, 20]: 0
Plant response rating, Com. groundsel [13, 21]: 10
Plant response rating, Com. groundsel [13, 22]: 10
Plant response rating, Com. groundsel ([13]; Rate 250 g/ha): 10
Plant response rating, Com. groundsel ([13]; Rate 500 g/ha): 98
Plant response rating Large crabgrass [14, 19]: 75
Plant response rating Large crabgrass [14, 20]: 75
Plant response rating Large crabgrass [14, 21]: 85
Plant response rating Large crabgrass [14, 22]: 100
Plant response rating Large crabgrass ([14]; Rate 250 g/ha): 100
Plant response rating Large crabgrass ([14]; Rate 500 g/ha): 100
Plant response rating, Spanishneedles [15, 19]: 0
Plant response rating, Spanishneedles [15, 20]: 0
Spanishneedles plant response rating [15, 21]: 0
Spanishneedles plant response rating [15, 22]: 0
Plant response rating, Spanishneedles ([15]; Rate 500 g/ha): 10
Plant response rating, C. ragweed [16, 19]: 0
Plant response rating, C. ragweed [16, 20]: 0
Plant response rating, C. ragweed [16, 21]: 0
Plant response rating, C. ragweed [16, 22]: 10
Plant response rating, C. ragweed ([16]; Rate 250 g/ha): 20
Plant response rating, C. ragweed ([16]; Rate 500 g/ha): 20
Plant response rating Johnsongrass [17, 19]: 0
Plant response rating Johnsongrass [17, 20]: 40
Plant response rating Johnsongrass [17, 21]: 40
Plant response rating Johnsongrass [17, 22]: 60
Plant response rating Johnsongrass ([17]; Rate 250 g/ha): 75
Plant response rating Johnsongrass ([17]; Rate 500 g/ha): 90
Plant response rating, Guineagrass [18, 19]: 0
Plant response rating, Guineagrass [18, 20]: 30
Plant response rating, Guineagrass [18, 21]: 30
Plant response rating, Guineagrass [18, 22]: 85
Plant response rating, Guineagrass ([18]; Rate 250 g/ha): 98
Plant response rating, Guineagrass ([18]; Rate 500 g/ha): 100

CCn1c(=O)on(C(=O)N(c2ccccc2)C(C)C)c1=O [Compound 117]
Plant response rating, Itchgrass [1, 21]: 40
Plant response rating, Itchgrass [1, 22]: 75
Plant response rating, Itchgrass ([1]; Rate 500 g/ha): 100
Plant response rating, Alexandergrass [2, 21]: 90
Plant response rating, Alexandergrass [2, 22]: 90
Plant response rating, Alexandergrass ([2]; Rate 500 g/ha): 98
Sandbur plant response rating [3, 21]: 0
Sandbur plant response rating [3, 22]: 0
Plant response rating, Sandbur ([3]; Rate 500 g/ha): 100
Surinam grass plant response rating [4, 21]: 80
Surinam grass plant response rating [4, 22]: 100
Plant response rating, Surinam grass ([4]; Rate 500 g/ha): 100
Plant response rating, Bermudagrass [5, 21]: 98
Plant response rating, Bermudagrass [5, 22]: 100
Plant response rating, Bermudagrass ([5]; Rate 500 g/ha): 100
Plant response rating, Green foxtail ([6]; Rate 500 g/ha): 100
Tall Mallow plant response rating [7, 21]: 40
Tall Mallow plant response rating [7, 22]: 65
Plant response rating, Tall Mallow ([7]; Rate 500 g/ha): 100
Plant response rating, Dallisgrass [8, 21]: 85
Plant response rating, Dallisgrass [8, 22]: 95
Plant response rating, Dallisgrass ([8]; Rate 500 g/ha): 100
Plant response rating, Goosegrass [9, 21]: 85
Plant response rating, Goosegrass [9, 22]: 100
Plant response rating, Goosegrass ([9]; Rate 500 g/ha): 100
Plant response rating, P. morninglory [10, 21]: 0
Plant response rating, P. morninglory [10, 22]: 20
Plant response rating, P. morninglory ([10]; Rate 500 g/ha): 40
Purple nutsedge plant response rating [11, 21]: 0
Purple nutsedge plant response rating [11, 22]: 0
Plant response rating, Purple nutsedge ([11]; Rate 500 g/ha): 100
Plant response rating, C. purslane [12, 23]: 0
Plant response rating, C. purslane [12, 24]: 0
Plant response rating, C. purslane [12, 25]: 65
Plant response rating, C. purslane [12, 26]: 0
Plant response rating, Com. groundsel [13, 21]: 0
Plant response rating, Com. groundsel [13, 22]: 75
Plant response rating, Com. groundsel ([13]; Rate 500 g/ha): 100
Plant response rating Large crabgrass [14, 21]: 98
Plant response rating Large crabgrass [14, 22]: 98
Plant response rating Large crabgrass ([14]; Rate 500 g/ha): 100
Spanishneedles plant response rating [15, 21]: 0
Spanishneedles plant response rating [15, 22]: 0
Plant response rating, Spanishneedles ([15]; Rate 500 g/ha): 0
Plant response rating, C. ragweed [16, 21]: 0
Plant response rating, C. ragweed [16, 22]: 0
Plant response rating, C. ragweed ([16]; Rate 500 g/ha): 65
Plant response rating Johnsongrass [17, 21]: 90
Plant response rating Johnsongrass [17, 22]: 90
Plant response rating Johnsongrass ([17]; Rate 500 g/ha): 100
Plant response rating, Guineagrass [18, 21]: 100
Plant response rating, Guineagrass [18, 22]: 100
Plant response rating, Guineagrass ([18]; Rate 500 g/ha): 100
